Assay results published in the supplement of paper PMC10307832.

Key:
[1] = compound: C[C@@H](Oc1cc(-c2cnn(C3CCNCC3)c2)cnc1N)c1c(Cl)ccc(F)c1Cl [Crizotinib]; assay: relative viability (nuclei count vs DMSO), 5 days (fraction); higher = more cells survive
Summary of the method: (§1)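 Following overnight incubation at 37 °C, lung cancer cell lines in 1536-well plates were pinned with five library-drug doses (not always all listed) in √10 steps on vehicle-anchored plates. The cells then spent 5 days without medium change before a combined fix, permeabilisation and Hoechst stain, 4× imaging and MetaXpress nuclear counts. Viability is the treated-to-vehicle ratio of nuclei, taken as the median across plates. Only plates with control CV below 25% and at least one doubling passed.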

[2] = compound: CC(C)C[C@H](NC(=O)[C@H](CCc1ccccc1)NC(=O)CN1CCOCC1)C(=O)N[C@@H](Cc1ccccc1)C(=O)N[C@@H](CC(C)C)C(=O)[C@@]1(C)CO1 [Carfilzomib]; assay: as above
Summary of the method: as §1

| Cell Line | relative viability ([1]; 0.01 µM) | relative viability ([1]; 0.03162 µM) | relative viability ([1]; 0.1 µM) | relative viability ([1]; 0.3162 µM) | relative viability ([1]; 1 µM) | relative viability ([1]; 1 µM, anchor plate) | relative viability ([2]; 0.001 µM) | relative viability ([2]; 0.003162 µM) | relative viability ([2]; 0.01 µM) | relative viability ([2]; 0.03162 µM) | relative viability ([2]; 0.1 µM) |
| --- | --- | --- | --- | --- | --- | --- | --- | --- | --- | --- | --- |
| NCI-H2087 | 0.871 | 0.982 | 1.22 | 0.788 | 1.03 | 0.811 | 0.989 | 1.06 | 0.586 | 0.0747 | 0.0676 |
| NCI-H2126 | 0.934 | 1.02 | 0.959 | 0.914 | 0.993 | – | 0.994 | 1.07 | 1.03 | 0.93 | 0.568 |
| NCI-H2170 | – | 0.985 | 0.977 | 0.928 | 1.01 | 1.2 | 0.931 | 0.99 | 1.07 | 0.969 | 0.443 |
| NCI-H2228 | 1.16 | 1.04 | 1 | 0.679 | 0.585 | 0.482 | 0.975 | 1.15 | 0.905 | 0.157 | 0.101 |
| NCI-H2342 | 0.891 | 0.999 | – | 0.867 | 0.882 | – | 0.975 | 0.957 | 1.06 | 0.968 | 0.825 |
| NCI-H2347 | 0.965 | 0.974 | 1.07 | 0.973 | 1.06 | 0.73 | 0.971 | 1.08 | 1.03 | 0.511 | 0.393 |
| NCI-H2405 | 1.01 | 0.977 | 0.909 | 0.949 | 0.973 | 0.789 | 0.704 | 1.15 | 1.1 | 0.8 | 0.277 |
| NCI-H3122 | 0.944 | 0.988 | 1.02 | 0.864 | 0.798 | 0.275 | 1.03 | 1.05 | 1.03 | 0.978 | 0.455 |
| PC-3 [JPC-3] | 0.978 | 1.04 | 1.15 | 0.992 | 0.961 | 0.97 | 1 | 1.07 | 1.09 | 0.896 | 0.39 |
| PC-14 | 0.92 | 1.01 | 1.02 | 0.963 | 0.986 | – | 1.03 | 1.13 | 1.06 | 0.29 | 0.0816 |
| RERF-LC-KJ | 0.944 | 1.06 | 1.02 | 0.927 | 1.05 | 0.819 | 0.923 | 1.03 | 1.05 | 0.683 | 0.259 |
| SK-LU-1 | 1.06 | 1.07 | 1.02 | 1.05 | 1.08 | 0.852 | 0.968 | 1.22 | 1 | 0.249 | 0.187 |
| SK-MES-1 | 0.951 | 0.999 | 1.02 | 0.97 | 0.967 | 0.991 | 0.987 | 1.05 | 1.06 | 0.782 | 0.186 |
| SW 900 | 0.811 | 0.97 | 0.93 | 0.787 | 0.952 | – | 0.747 | 0.883 | 0.288 | 0.161 | 0.192 |
| SW 1573 | 0.941 | 0.999 | 0.917 | 0.885 | 0.974 | 0.793 | 0.957 | 1.18 | 0.77 | 0.173 | 0.0655 |
| UMC-11 | 0.898 | 0.972 | 0.91 | 0.636 | 1.01 | 0.606 | 0.947 | 1.03 | 0.987 | 0.854 | 0.578 |
